Earlier results as cited in PMC8966651, “PKPD Modeling of the Inoculum Effect of Acinetobacter baumannii on Polymyxin B in vivo” (Frontiers in Pharmacology, 2022).
Read-outs that look alike come from different tables or passages of the source.

Experiments:
[1] = tested on: E. coli; details: cited from earlier work; for E. coli MICs at initial inoculum 10^7 CFU/ml compared to 10^5 CFU/ml: in vitro
Text: The clinical relevance of in vitro IE has been questioned in previous studies ([Maglio et al., 2004]; [Maglio et al., 2005]; [Fantin et al., 2019]).

[2] = tested on: E. coli; details: murine thigh infection model; ref de Araujo et al., 2011; cited from earlier work
Text: An innovative aspect of this study was the refinement of a PKPD model, based on the model developed after in vitro TK experiments conducted with A. baumannii and PMB ([Akrong et al., 2021]). […] The different growth behavior between in vitro and in vivo has been associated in literature ...

[3] = tested on: A. baumannii; details: initial inoculum of A. baumannii increased from 10^7 to 10^8 CFU/lung; ref Lin et al., 2018; cited from earlier work
Text: Yet the IE of A. baumannii on polymyxins in vivo remains to be investigated. […] But IE was only investigated on rare occasions in vivo, with antibiotics such as marbofloxacin ([Ferran et al., 2009]), piperacillin-tazobatam ([Harada et al., 2014]), ertapenem ([Maglio et al., 2005]), meropenem ([Mizunaga et al., 2005]) or colistin ([Fantin et al., 2019]) against various Gram-negative pathogens such as E. coli, K. pneumoniae ...

Compound: C[C@@H](O)[C@H]1C(=O)N2C(C(=O)O)=C(S[C@@H]3CN[C@H](C(=O)Nc4cccc(C(=O)O)c4)C3)[C@H](C)[C@H]12 [ertapenem]
- E. coli MICs at initial inoculum 10^7 CFU/ml compared to 10^5 CFU/ml ([1]; ref Maglio et al., 2005): elevations of E. coli MICs
- inoculum effect (IE) in vivo ([1]; neutropenic mouse thigh infection model, ref Maglio et al., 2005): no IE was observed in vivo

Compound: CO/N=C(\C(=O)N[C@@H]1C(=O)N2C(C(=O)[O-])=C(C[N+]3(C)CCCC3)CS[C@H]12)c1csc(N)n1 [cefepime]
- E. coli MICs at initial inoculum 10^7 CFU/ml compared to 10^5 CFU/ml ([1]; ref Maglio et al., 2004): elevations of E. coli MICs
- inoculum effect (IE) in vivo ([1]; neutropenic mouse thigh infection model, ref Maglio et al., 2004): no IE was observed in vivo

Compound: CCN1CCN(C(=O)N[C@@H](C(=O)N[C@@H]2C(=O)N3[C@@H]2SC(C)(C)[C@@H]3C(=O)O)c2ccccc2)C(=O)C1=O [piperacillin]
- maximum killing effect in vivo as compared to in vitro [2]: two times smaller

Compound: colistin
- efficacy of nebulized colistin with increasing inoculum [3]: decrease in the efficacy
- inoculum effect (IE) in vivo ([1]; mice infected with E. coli, ref Fantin et al., 2019): observed an in vivo IE
